# Measured values published in ChEMBL document CHEMBL3507680, “University of Dundee, Gates Library screen for HepG2 cell viability”.
# Experiment: Human HepG2 cell viability assay in 384 well format
# Assay type: toxicity, cell-based
# Parameters: dose 125 nL, time 70.5 hour; concentration not given beside the values
# Details: HepG2 cells, read-out: Inhibition
row,SMILES,cytotoxicity at 70.5 h
1,Cc1cc(C2CCCN2C(=O)c2ccc(OCC(N)=O)cc2)no1 (stereo not given),-11.5%
2,COc1cccc(N2CCC(CNC(=O)N(C)Cc3ccco3)C2)c1 (stereo not given),-3.66%
3,CC(C)CC(CCO)CNC(=O)N1CC(C)(C)C1(C)C (stereo not given),-7.83%
4,Cc1ccc(CN2C[C@@H]3CN(c4ncc(F)cn4)C[C@@H]3C2)cc1,-1.01%
5,Cc1cnn(CCNCCCOc2ccccc2)c1,-7.1%
6,O=C(NCc1cn2c(n1)SCC2)c1ccc(CN2CCCCC2)cc1,2.13%
7,Cc1cc(C)n(-c2ccc(CNCc3ccc(C)o3)cn2)n1,-7.08%
8,Cn1nc(C2CCN(C(=O)CN3CCCCC3)CC2)c2cccnc21,-4.57%
9,O=C(c1sccc1Br)N1CCOCC1,-15.9%
10,CC(C)(C)c1n[nH]c(C2CN(C(=O)CCCn3cccn3)CCO2)n1 (stereo not given),0.387%
11,COCC1CN(C(=O)c2ccoc2C)Cc2nccn2C1 (stereo not given),22.7%
12,CC(C)Nc1nc(O)cc(C(C)n2ncc3ccccc3c2=O)n1 (stereo not given),-5.33%
13,O=C1CO[C@@H]2CN(C3CCOCC3)C[C@H]2N1Cc1cccc(F)c1,-6.55%
14,Cc1ccc(S(N)(=O)=O)cc1C(=O)NC1CCCN(C)C1 (stereo not given),1.47%
15,CCN1CCNC(=O)C12CCN(S(=O)(=O)c1ccc(OC)cc1)CC2,-7.91%
16,CCc1ccc2nc(C)cc(C(=O)N[C@@H]3CCCNC3)c2c1,2.34%
17,Cn1cnc(-c2nc(C(=O)NCCN3CCOCC3)c3ccccn23)c1,-2.81%
18,CC(C)(NC(=O)c1scnc1Cl)c1ccccc1,-12.8%
19,CSCCC(=O)N(C/C=C/c1ccccc1)CCO,-5.02%
20,O=C(CCc1ccc(F)cc1)NS(=O)(=O)c1ccc2c(c1)OCCCO2,4.05%
21,CC(=O)N1CCN(Cc2ccc3c(c2)OCCO3)CC(O)C1 (stereo not given),-10.7%
22,C=C(C)Cn1nc(C)c(CN2CCN(C3CCCCC3)C(=O)C2)c1C,1.66%
23,CC1(C(N)=O)CN(CC2CCC2)CCO1 (stereo not given),-2.2%

row,SMILES,cytotoxicity at 70.5 h
1,COc1ccccc1CN1CCCC(n2cccn2)C1 (stereo not given),-1.34%
2,CCOC(C(=O)N1CCn2c(nnc2C(C)C)C1)c1ccccc1 (stereo not given),19.3%
3,Cc1cc(-c2cc(N)c(=O)n(CC(=O)NC3CCCC3)n2)c(C)o1,-1.96%
4,O=C(c1ccc(C2CCCO2)s1)N1CCOCC1 (stereo not given),-5.89%
5,Cc1ccc(CNC(=O)c2oc3ccccc3c2CN(C)C)n1C,-6.83%
6,Cn1c(=O)oc2ccc(NC(=O)N3CCc4ccccc4C3)cc21,2.84%
7,COc1ccc(-c2noc(CN3CCCC3Cn3cccn3)n2)cc1 (stereo not given),-1.01%
8,CCCc1cc(C(=O)Nc2nc(SC)ns2)n(C)n1,-13.2%
9,CC(C)C(Sc1nnnn1C1CC1)C(=O)NCc1ccccc1 (stereo not given),-7.04%
10,O=C(c1cc(-c2cn[nH]c2)nc2cc(F)ccc12)N1CCS(=O)(=O)CC1,-13.7%
11,O=C(CN1CCCC(c2ncc[nH]2)C1)NCCCN1CCCCCC1=O (stereo not given),-10.5%
12,CCCc1nnc(NC2CCN(CCO)CC2)o1,-6.74%
13,O=C(NC1CC1)c1ccnc(-c2cc(NCCO)nc3[nH]ccc23)c1,21.9%
14,Cc1noc(C)c1CN1CCO[C@H]2CN(Cc3cccc(F)c3)C[C@H]21,-13.7%
15,O=C(Nc1ccc(-c2csnn2)cc1)N1CC[C@H](O)C1,-13.4%
16,O=C(O)[C@@H]1CN(C(=O)c2ccc3nccnc3c2)C[C@H]1c1ccncc1,-7.07%
17,CCc1nnc(CN2CCN(CC(O)c3ccccc3)CC2)o1 (stereo not given),-1.5%
18,O=C(c1cscn1)N1CCC2(CCCN(CCOc3ccccc3)C2)C1 (stereo not given),-19.6%
19,CCc1cc(C(=O)N2CCCC(c3[nH]ncc3S(C)(=O)=O)C2)no1 (stereo not given),-7.59%
20,O=C(CN1CCc2cncnc2C1)N1CCc2sccc2C1,-11%
21,CN1CCN(Cc2cn3c(n2)CN(C(=O)c2ccco2)CC3)CC1,1.76%
22,CCN(CC1CN(Cc2nccn2CC)CCO1)c1cccnn1 (stereo not given),-9.34%
23,Cc1ccccc1N1CC(C)N(C(=O)CCn2cccn2)CC1=O (stereo not given),15.3%

row,SMILES,cytotoxicity at 70.5 h
1,COc1cc(S(=O)(=O)N2CCCc3ccccc32)cc(C(=O)O)c1OC,5.62%
2,CC(=O)N1C[C@H]2CCCN(S(=O)(=O)c3ccc(Cl)s3)[C@H]2C1,44.3%
3,CC(C)NC(=O)[C@@H]1CN(Cc2ccc3c(c2)OCO3)C[C@H]2OCC[C@H]21,-2.81%
4,Cc1ccc(-c2csc3c(=O)[nH]c(N4CCCC(C(N)=O)C4)nc23)cc1 (stereo not given),1.04%
5,Cc1cc(C(=O)N2CCc3nnc(N(C)C)cc3C2)c(C)n1C1CC1,-3.63%
6,Cc1cnc(C(=O)N2CCCN(Cc3cnn(C(C)C)c3)CC2)cn1,17.6%
7,O=C(NCCCc1ccco1)c1cnc(N2CCOCC2)nc1,-18.7%
8,CCOC(=O)c1ccc(CNC(=O)c2ccncc2Cl)o1,-7.26%
9,CCC(c1ccc(F)cc1F)N1CCN(CCO)CC1 (stereo not given),-6.18%
10,N#Cc1cccc(N2CCC(CO)(CCOc3ccccc3)CC2)n1,-4.29%
11,COCC1(CNC(=O)Nc2cc(F)ccc2OC)CCCC1,6.61%
12,CC(=O)N[C@@H]1CN(CC(=O)NCc2ccccc2C)C[C@H]1C(C)C,-6.75%
13,Cn1cccc1-c1cc(C(=O)N2CCCC2c2nccs2)[nH]n1 (stereo not given),-0.138%
14,O=C(NCCC1CCCCO1)c1cc(COc2ccccc2F)[nH]n1 (stereo not given),-4.49%
15,CCCC(=O)NC(C)(C)Cc1ccccc1OC,-12.8%
16,O=C(CSc1nncs1)N1CCN(Cc2ccc(Cl)cc2)CC1,1.53%
17,O=C1COc2cc(C(=O)N3CCCC(n4ccnc4)C3)ccc2N1 (stereo not given),-1.66%
18,COCCN1CCC2(CCCN(C(=O)c3cnoc3C)C2)C1=O (stereo not given),-0.05%
19,CCCc1nc(C(=O)N2CCn3nc(C(=O)OC)cc3C2)cs1,16.6%
20,CSCc1cc(C(=O)NC2(C#N)CCSC2)ccc1F (stereo not given),-8.71%
21,CC(NC(=O)NCc1cc(Br)cs1)c1ccccn1 (stereo not given),-3.66%
22,Cc1cnn(CCNCc2ccccc2Oc2cccnc2)c1,28.3%
23,Cc1ccc(CCNC(=O)N2CCC(Cc3cnn(C)c3)C2)cn1 (stereo not given),-1.42%

row,SMILES,cytotoxicity at 70.5 h
1,O=C(c1ncoc1-c1ccco1)N1CCCN(c2nccs2)CC1,-2.69%
2,CCCOC1CCCN(C(=O)c2ccc(S(N)(=O)=O)cc2)C1 (stereo not given),-3.49%
3,Cc1cc(C(=O)N2CCN(c3nc4ccccc4s3)CC2)no1,48.3%
4,Cc1cccc(C)c1NC(=O)CC(CN1CCN(C)CC1)C(=O)O (stereo not given),-15.8%
5,CN(C)C(=O)N1C[C@@H]2COC[C@]2(c2nnc(C3CC3)o2)C1,-10.1%
6,O=c1c2ccccc2nc2n1CCN(Cc1cccs1)CC2,-16.1%
7,CC(C)NC(=O)C1CN(Cc2ccc(F)cc2)CC12CCOCC2 (stereo not given),-10.5%
8,COCC(=O)N1CCN(C)c2ncccc2C1,-0.482%
9,Cc1nnc(CN(Cc2cccc(Br)c2)C2CC2)o1,-8.25%
10,Cc1nc(-c2ccco2)ccc1C(=O)NCCC(=O)N1CCCCC1,-103%
11,CCOC(=O)N1CCN(C(=O)c2sc(-c3ccccc3F)nc2C)CC1,-11.8%
12,O=C(C1CCC1)N1CCOc2cccc(F)c21,-9.1%
13,CCOc1ccccc1CCN1Cc2ncccc2C1=O,3.15%
14,c1cc(CN(CCCn2ccnc2)Cc2ccoc2)ccn1,-4.93%
15,Cc1cc(N(C)Cc2snnc2C)nc(-c2cccnc2)n1,-12.5%
16,CNc1ccnc(N(C)Cc2cc(-c3cccs3)n[nH]2)n1,32.5%
17,CCn1c(Cn2cncn2)nnc1C1CCN(C2CCOCC2)CC1,34.9%
18,O=C(NCCCNc1ccccc1)c1scnc1Cl,4.41%
19,CC(=O)N1CCC(c2nccnc2-c2ccc(F)cc2)CC1,-0.029%
20,CCOC(=O)CNC(=O)NCc1cccn1Cc1ccccc1,-13.4%
21,O=C(NCCOc1cccc(Cl)c1Cl)N1CCC2(CC1)OCCO2,-4.01%
22,Cc1cc(C2CCCN2C(=O)c2cc3c(s2)CCC3)on1 (stereo not given),-16.3%
23,Cc1noc(C2CCCN(C(=O)c3scnc3Cl)C2)n1 (stereo not given),13%

row,SMILES,cytotoxicity at 70.5 h
1,CC(C)(C)c1nc(CN(Cc2cccs2)CC2CCCO2)no1 (stereo not given),3.58%
2,Cc1cc(N2CCCN(Cc3ccc(C)o3)CC2)ccn1,-3.18%
3,CCCC1c2ccccc2CCN1CCS(C)(=O)=O (stereo not given),-3.74%
4,O=C1CCC2(CCCN(C(=O)c3cccs3)C2)N1 (stereo not given),35.1%
5,O=C(Cc1ccc2c(c1)CCO2)N1CCN(c2nccs2)CC1,-2.11%
6,CC(=O)Nc1ccc2c(c1)CN(C(=O)c1ccco1)CC2,18.4%
7,O=S(=O)(CC1CCCCO1)Nc1c(F)cccc1-n1cccn1 (stereo not given),-3.07%
8,Cc1cc(N(C)C)cc(C2CCN(S(=O)(=O)c3cccs3)C2)n1 (stereo not given),14.4%
9,C=C(C)CN1CCOC(Cn2cncn2)C1 (stereo not given),32%
10,CCOc1cc(Cl)ccc1CNC(=O)c1ccc(=O)n(C)c1,11.4%
11,Cc1nc(CN2CCN(CCCc3ccccc3)CC2)no1,1.83%
12,CN(C)c1ccc(C(=O)N2CCCC(n3cccn3)C2)nn1 (stereo not given),-4.36%
13,Cc1ccc(-n2ncc(C(=O)N3CCCC3c3cnn(C)c3)c2C)cc1 (stereo not given),11.4%
14,O=S1(=O)C[C@@H]2[C@H](C1)N(Cc1cc(Cl)cc(Cl)c1)CCN2CC1CC1,-17.1%
15,O=C(CCc1cc2n(n1)CCCN(C(=O)c1ccncc1)C2)NC1CC1,-6.73%
16,O=C1COC2(CCN(C(=O)C3CC=CC3)CC2)CN1Cc1cccnc1,12.1%
17,O=c1c2sccc2nc2n1CCN(Cc1ccccc1C(F)(F)F)CC2,-10.4%
18,CC(C(=O)O)N1CC2(CCC1=O)CCN(CCSc1ccccc1)CC2 (stereo not given),-13.8%
19,CN(C)S(=O)(=O)N1CCC(Oc2cccnn2)CC1,0.601%
20,c1cnc2c(c1)cc([C@@H]1CCCO1)n2CCN1CCOCC1,0.0365%
21,CCCc1cncnc1N1CCC(NCc2ccc(O)cc2)CC1,-2.53%
22,Cc1csc(CNC(=O)NCC(O)c2ccccc2)n1 (stereo not given),-4.81%
23,COc1ccccc1CN(Cc1nc(CC(C)C)no1)C1CC1,-14.2%
